Results taken from patent US20240252454A1, “COMPOSITION COMPRISING AN INHIBITOR OF MITOCHONDRIAL TRANSCRIPTION” (LEAD DISCOVERY CENTER GMBH, priority 2021, published 2024).

How the values were obtained:
Experiment in all cases: SRB assay, IMT combined with inhibitor
Format in all cases: cell-based
[1] = tested on: JAR; conditions: JAR (placenta); concentration series of the labelled inhibitor + fixed concentration of IMT (3S)-1-[(2R)-2-[4-(2-chloro-4-fluoro-phenyl)-2-oxo-chromen-7-yl]oxypropanoyl]piperidine-3-carboxylic acid (Table 3: 40 nM, 120 h); negative=synergistic, positive=antagonistic
Experimental: (§1) Solforhodamine B assay is carried out as described in Voigt W. (2005) Sulforhodamine B Assay and Chemosensitivity. (Methods in Molecular Medicine™, vol 110. Humana Press. https://doi.org/10.1385/1-59259-869-2:039).
(§2) The determination of changes in cellular biomass was based on the Solforhodamine B assay format, carried out as described in Voigt W. (2005) Sulforhodamine B Assay and Chemosensitivity. (Methods in Molecular Medicine™, vol 110. Humana Press. https://doi.org/10.1385/1-59259-869-2:039).
(§3) All in vitro cell culture experiments were carried out under near physiological glucose concentrations (5 mM) in at least two independent replicates.
(§4) First, 30 different cell lines from 14 different tissue types were tested in the SRB assay format. The cells were examined individually for changes in growth over a period of 120 hours with dilution series of both inhibitors. Untreated cells were used as a negative control group. Subsequently, a dilution series of the respective MAPK signalling pathway SOCs was treated in combination with a fixed concentration of 40 nM (3S)-1-[(2R)-2-[4-(2-chloro-4-fluoro-phenyl)-2-oxo-chromen-7-yl]oxypropanoyl]piperidine-3-carboxylic acid.

[2] = tested on: HT1080; conditions: HT1080 (connective tissue); concentration series of the labelled inhibitor + fixed concentration of IMT (3S)-1-[(2R)-2-[4-(2-chloro-4-fluoro-phenyl)-2-oxo-chromen-7-yl]oxypropanoyl]piperidine-3-carboxylic acid (Table 3: 40 nM, 120 h); negative=synergistic, positive=antagonistic
Experimental: as §1, §2, §3, §4

[3] = tested on: SW620; conditions: SW620 (colon); concentration series of the labelled inhibitor + fixed concentration of IMT (3S)-1-[(2R)-2-[4-(2-chloro-4-fluoro-phenyl)-2-oxo-chromen-7-yl]oxypropanoyl]piperidine-3-carboxylic acid (Table 3: 40 nM, 120 h); negative=synergistic, positive=antagonistic
Experimental: as §1, §2, §3, §4

[4] = tested on: COLO205; conditions: COLO205 (colon); concentration series of the labelled inhibitor + fixed concentration of IMT (3S)-1-[(2R)-2-[4-(2-chloro-4-fluoro-phenyl)-2-oxo-chromen-7-yl]oxypropanoyl]piperidine-3-carboxylic acid (Table 3: 40 nM, 120 h); negative=synergistic, positive=antagonistic
Experimental: as §1, §2, §3, §4

[5] = tested on: IMR90; conditions: IMR90 (lung); concentration series of the labelled inhibitor + fixed concentration of IMT (3S)-1-[(2R)-2-[4-(2-chloro-4-fluoro-phenyl)-2-oxo-chromen-7-yl]oxypropanoyl]piperidine-3-carboxylic acid (Table 3: 40 nM, 120 h); negative=synergistic, positive=antagonistic
Experimental: as §1, §2, §3, §4

[6] = tested on: SKMEL5; conditions: SKMEL5 (skin); concentration series of the labelled inhibitor + fixed concentration of IMT (3S)-1-[(2R)-2-[4-(2-chloro-4-fluoro-phenyl)-2-oxo-chromen-7-yl]oxypropanoyl]piperidine-3-carboxylic acid (Table 3: 40 nM, 120 h); negative=synergistic, positive=antagonistic
Experimental: as §1, §2, §3, §4

[7] = tested on: DU145; conditions: DU145 (prostate); concentration series of the labelled inhibitor + fixed concentration of IMT (3S)-1-[(2R)-2-[4-(2-chloro-4-fluoro-phenyl)-2-oxo-chromen-7-yl]oxypropanoyl]piperidine-3-carboxylic acid (Table 3: 40 nM, 120 h); negative=synergistic, positive=antagonistic
Experimental: as §1, §2, §3, §4

[8] = tested on: SKMEL28; conditions: SKMEL28 (skin); concentration series of the labelled inhibitor + fixed concentration of IMT (3S)-1-[(2R)-2-[4-(2-chloro-4-fluoro-phenyl)-2-oxo-chromen-7-yl]oxypropanoyl]piperidine-3-carboxylic acid (Table 3: 40 nM, 120 h); negative=synergistic, positive=antagonistic
Experimental: as §1, §2, §3, §4

[9] = tested on: KASUMI-1; conditions: KASUMI-1 (hematological); concentration series of the labelled inhibitor + fixed concentration of IMT (3S)-1-[(2R)-2-[4-(2-chloro-4-fluoro-phenyl)-2-oxo-chromen-7-yl]oxypropanoyl]piperidine-3-carboxylic acid (Table 3: 40 nM, 120 h); negative=synergistic, positive=antagonistic
Experimental: as §1, §2, §3, §4

[10] = tested on: HT29; conditions: HT29 (colon); concentration series of the labelled inhibitor + fixed concentration of IMT (3S)-1-[(2R)-2-[4-(2-chloro-4-fluoro-phenyl)-2-oxo-chromen-7-yl]oxypropanoyl]piperidine-3-carboxylic acid (Table 3: 40 nM, 120 h); negative=synergistic, positive=antagonistic
Experimental: as §1, §2, §3, §4

[11] = tested on: HELA; conditions: HELA (cervix); concentration series of the labelled inhibitor + fixed concentration of IMT (3S)-1-[(2R)-2-[4-(2-chloro-4-fluoro-phenyl)-2-oxo-chromen-7-yl]oxypropanoyl]piperidine-3-carboxylic acid (Table 3: 40 nM, 120 h); negative=synergistic, positive=antagonistic
Experimental: as §1, §2, §3, §4

[12] = tested on: HCT15; conditions: HCT15 (colon); concentration series of the labelled inhibitor + fixed concentration of IMT (3S)-1-[(2R)-2-[4-(2-chloro-4-fluoro-phenyl)-2-oxo-chromen-7-yl]oxypropanoyl]piperidine-3-carboxylic acid (Table 3: 40 nM, 120 h); negative=synergistic, positive=antagonistic
Experimental: as §1, §2, §3, §4

[13] = tested on: A2780; conditions: A2780 (ovary); concentration series of the labelled inhibitor + fixed concentration of IMT (3S)-1-[(2R)-2-[4-(2-chloro-4-fluoro-phenyl)-2-oxo-chromen-7-yl]oxypropanoyl]piperidine-3-carboxylic acid (Table 3: 40 nM, 120 h); negative=synergistic, positive=antagonistic
Experimental: In two studies, the ovarian cell line A2780 was tested for 72 hours with the IMT N,N-dimethyl-2-[4-(o-tolyl)-2-oxo-chromen-7-yl]oxy-propanamide (30 μM-15 nM) and the MEK inhibitor Selumetinib (30 μM-10 nM), or with the IMT 1-[2-[4-(2-chlorophenyl)-2-oxo-chromen-7-yl]oxypropanoyl]piperidine-3-sulfonamide (30 μM-15 nM) and the MEK inhibitor PD318088 (30 μM-10 nM).
as §1, §2, §3, §4

SMILES | difference between the calculated combinatorial index (BLISS) and the observed combinatorial effect [1] | difference between the calculated combinatorial index (BLISS) and the observed combinatorial effect [2] | difference between the calculated combinatorial index (BLISS) and the observed combinatorial effect [3] | difference between the calculated combinatorial index (BLISS) and the observed combinatorial effect [4] | difference between the calculated combinatorial index (BLISS) and the observed combinatorial effect [5] | difference between the calculated combinatorial index (BLISS) and the observed combinatorial effect [6] | difference between the calculated combinatorial index (BLISS) and the observed combinatorial effect [7] | difference between the calculated combinatorial index (BLISS) and the observed combinatorial effect [8] | difference between the calculated combinatorial index (BLISS) and the observed combinatorial effect [9] | difference between the calculated combinatorial index (BLISS) and the observed combinatorial effect [10] | difference between the calculated combinatorial index (BLISS) and the observed combinatorial effect [11] | difference between the calculated combinatorial index (BLISS) and the observed combinatorial effect [12] | difference between the calculated combinatorial index (BLISS) and the observed combinatorial effect [13]
O=C(NOC[C@H](O)CO)c1ccc(F)c(F)c1Nc1ccc(I)cc1F [PD 0325901, (R)—N-(2,3-dihydroxypropoxy)-3,4-difluoro-2-((2-fluoro-4-iodophenyl)amino)benzamide] | 0.0256 | 0.0433 | 0.0316 | 0.0261 | 0.0387 | 0.0095 | −0.0558 | 0.0303 | −0.0286 | 0.0786 | −0.2549 | 0.1249 | −0.0318
CC(C)(C)c1nc(-c2cccc(NS(=O)(=O)c3c(F)cccc3F)c2F)c(-c2ccnc(N)n2)s1 [Dabrafenib] | 0.0431 | −0.1475 | −0.0699 | −0.0114 | −0.0104 | −0.0987 | −0.0114 | 0.0194 | −0.0274 | 0.0360 | −0.0022 | 0.0551 | 0.0281
O=C(c1ccc(F)c(F)c1Nc1ccc(I)cc1F)N1CC(O)([C@@H]2CCCCN2)C1 [Cobimetinib] | 0.0139 | −0.0482 | −0.0609 | 0.0185 | −0.0073 | −0.0872 | 0.0164 | −0.0040 | −0.0232 | 0.0382 | −0.0068 | 0.0539 | −0.0105
Cn1cnc2c(F)c(Nc3ccc(Br)cc3Cl)c(C(=O)NOCCO)cc21 [Selumetinib] | 0.0045 | −0.0139 | −0.0547 | 0.0142 | −0.0291 | −0.0968 | 0.0383 | 0.0096 | −0.0114 | 0.0236 | 0.0054 | 0.0320 | −0.0046
O=C(c1cc(Cc2n[nH]c(=O)c3ccccc23)ccc1F)N1CCN(C(=O)C2CC2)CC1 [Olaparib] | 0.0294 |  | 0.0198 | −0.0607 | 0.0084 |  | 0.0557 | −0.0624 | −0.0415 | 0.0068 | −0.0307 | −0.0472 | −0.0656
